According to US9493468B2, “Antifungal 5,6-dihydro-4H-pyrrolo[1,2-a][1,4]benzo-diazepines and 6H-pyrrolo[1,2-a][1,4]benzodiazepines substituted with heterocyclic derivatives” (Janssen Pharmaceutica NV, priority 2011, dated 2016):

Tests used:
Assay type in all cases: cell-based
[1] = test system: Microsporum canis; test: Antifungal activity in vitro, resazurin growth inhibition: Microsporum canis (B68128)
Method: (§1) The standard susceptibility screen is performed in 96-well plates (U-bottom, Greiner Bio-One). Serial dilutions (2-fold or 4-fold) of 20 mM compound stock solutions are made in 100% DMSO, followed by an intermediate dilution step in water. These serial dilutions (10 μl) are then spotted onto test-plates that can be stored in the dark at 4° C. for a maximum period of 2 weeks. An adequate broad dose-range is included with 64 μM as the highest in-test concentration. The culture medium RPMI-1640 is supplemented with L-glutamine, 2% glucose and buffered with 3-(N-morpholino)-propanesulfonic acid (MOPS) at pH 7.0±0.1.
(§2) The different fungal species/isolates (Table 3a) are cryopreserved and 1/1000 diluted in medium just prior to use. A standard inoculum of 200 μl containing 10^3 colony-forming unit (cfu) is then added to each well. A positive control (100% growth=fungal culture without antifungal) and a negative control (0% growth ═RPMI-MOPS medium) are included on each plate. Optimal incubation time and temperature are dependent on the fungal species and vary from 24 h for yeasts (37° C.) to one week or more for dermatophytes (27° C.). Inhibition of fungal growth is measured after adding 10 μl of 0.005% (w/v) resazurin (Sigma Aldrich) to each well, based on the principle that living cells convert the non-fluorescent blue resazurin into the pink and fluorescent resorufin, allowing fluorimetric reading (λex 550 nm and λem 590 nm) after an additional incubation period (‘resa’ time mentioned in Table 3a).

[2] = test system: Trichophyton mentagrophytes; test: Antifungal activity in vitro, resazurin growth inhibition: Trichophyton mentagrophytes (B70554)
Method: as §1, §2

[3] = test system: Trichophyton rubrum; test: Antifungal activity in vitro, resazurin growth inhibition: Trichophyton rubrum (B68183)
Method: as §1, §2

[4] = test system: Sporothrix schenkii; test: Antifungal activity in vitro, resazurin growth inhibition: Sporothrix schenkii (B62482)
Method: as §1, §2

[5] = test system: Aspergillus fumigatus; test: Antifungal activity in vitro, resazurin growth inhibition: Aspergillus fumigatus (B42928)
Method: as §1, §2

[6] = test system: Candida parapsilosis; test: Antifungal activity in vitro, resazurin growth inhibition: Candida parapsilosis (B66126)
Method: as §1, §2

[7] = test system: Cryptococcus neoformans; test: Antifungal activity in vitro, resazurin growth inhibition: Cryptococcus neoformans (B66663)
Method: as §1, §2

| Compound | Inf. B: Microsporum canis B68128, pIC50 [1] | Inf. G: Trichophyton mentagrophytes B70554, pIC50 [2] | Inf. C: Trichophyton rubrum B68183, pIC50 [3] | Inf. A: Sporothrix schenkii B62482, pIC50 [4] | Inf. E: Aspergillus fumigatus B42928, pIC50 [5] | Inf. D: Candida parapsilosis B66126, pIC50 [6] | Inf. F: Cryptococcus neoformans B66663, pIC50 [7] |
| --- | --- | --- | --- | --- | --- | --- | --- |
| COc1cccc2cc(C3NCc4c(Cl)cc(Cl)cc4-n4cccc43)oc12.Cl (racemic) [Compound 43] | 4.52 | <4.19 | 4.30 | <4.19 | <4.19 | <4.19 | <4.19 |
| COc1ccc2oc(C3NCc4c(Cl)cccc4-n4cccc43)cc2c1.Cl (racemic) [Compound 44] | 5.31 | 4.77 | 5.20 | <4.19 | <4.19 | <4.19 | <4.19 |
| COc1ccc2oc(C3NCc4ccc(Cl)cc4-n4cccc43)cc2c1.Cl (racemic) [Compound 45] | 5.32 | <4.19 | 5.09 | 4.80 | <4.19 | <4.19 | 4.62 |
| COc1ccc2oc(C3NCc4c(Cl)cc(Cl)cc4-n4cccc43)cc2c1.Cl (racemic) [Compound 46] | 5.12 | <4.19 | <4.19 | <4.19 | <4.19 | <4.19 | <4.19 |
| Cl.Fc1ccc2oc(C3NCc4ccc(Cl)cc4-n4cccc43)cc2c1 (racemic) [Compound 48] | 4.30 | <4.19 | 5.39 | <4.19 | <4.19 | <4.19 | 4.84 |
| Cl.Fc1ccc2oc(C3NCc4c(Cl)cc(Cl)cc4-n4cccc43)cc2c1 (racemic) [Compound 49] | 4.82 | <4.19 | 5.28 | <4.80 | <4.19 | <4.19 | <4.19 |
| Cc1nc2ccc(C3NCc4c(Cl)cccc4-n4cccc43)cc2o1.Cl (racemic) [Compound 50] | 4.56 | <4.19 | 4.49 | <4.19 | <4.19 | <4.19 | <4.19 |
| Cl.Clc1cc2oc(C3NCc4c(Cl)cccc4-n4cccc43)cc2cn1 (racemic) [Compound 51] | 5.40 | 4.94 | 5.63 | <4.19 | <4.19 | <4.19 | 4.45 |
| Cl.c1ccc2c(c1)CNC(c1cc3ccccc3s1)c1cccn1-2 (racemic) [Compound 52] | 5.70 | 5.70 | 6.13 | 5.40 | 5.30 | <4.19 | 6.00 |
| Cl.Clc1cccc2c1CNC(c1cc3ccccc3s1)c1cccn1-2 (racemic) [Compound 53] | 5.70 | 5.70 | 6.10 | 4.92 | 5.40 | <4.19 | 5.70 |
| Cl.Clc1cc(Cl)c2c(c1)-n1cccc1C(c1cc3ccccc3s1)NC2 (racemic) [Compound 56] | <4.19 | 4.48 | 5.71 | <4.19 | <4.19 | <4.19 | <4.19 |
| Cc1ccc(Cl)c2c1-n1cccc1C(c1cc3ccccc3s1)NC2.Cl (racemic) [Compound 57] | 5.24 | <4.19 | 5.10 | <4.19 | <4.19 | <4.19 | <4.19 |
| Cl.Clc1cccc2c1CNC(c1ccc3scc(Cl)c3c1)c1cccn1-2 (racemic) [Compound 58] | 5.08 | 5.09 | 6.29 | <4.19 | 4.48 | <4.19 | 4.58 |
| Cl.Clc1cccc2c1CNC(c1nc3ccccc3s1)c1cccn1-2 (racemic) [Compound 59] | 6.22 | 6.00 | 6.47 | 4.85 | <4.19 | <4.19 | <4.19 |
| CCn1cc(C2=NCc3c(Cl)cccc3-n3cccc32)cn1 [Compound 60] | 5.18 | 4.47 | 5.70 | <4.19 | 4.30 | <4.19 | <4.19 |
| CCn1cc(C2=NCc3c(Cl)ccc(Cl)c3-n3cccc32)cn1 [Compound 61] | 4.66 | 4.39 | 4.52 | <4.19 | <4.19 | <4.19 | 4.44 |
| CCn1cc(C2=NCc3cc(Cl)cc(Cl)c3-n3cccc32)cn1 [Compound 62] | 4.59 | 4.86 | 5.22 | 4.51 | 4.70 | 4.23 | 5.15 |
| CCc1cc(C2=NCc3c(Cl)cccc3-n3cccc32)on1 [Compound 63] | <4.19 | 5.58 | 5.72 | <4.19 | <4.19 | <4.19 | <4.19 |
| CCc1nc(C2=NCc3c(Cl)cccc3-n3cccc32)cs1 [Compound 64] | 5.42 | 5.94 | 5.46 | <4.19 | <4.19 | <4.19 | 4.70 |
| CCc1nc(C2=NCc3c(Cl)cc(Cl)cc3-n3cccc32)cs1 [Compound 65] | 4.72 | 5.48 | 5.19 | 4.56 | <4.19 | <4.19 | 5.06 |
| CCc1cnc(C2=NCc3c(Cl)cccc3-n3cccc32)s1 [Compound 66] | 4.98 | 4.19 | 6.18 | <4.19 | <4.19 | <4.19 | <4.19 |
| CCc1cnc(C2=NCc3c(Cl)cc(Cl)cc3-n3cccc32)s1 [Compound 67] | 4.50 | <4.19 | 4.71 | <4.19 | <4.19 | <4.19 | <4.19 |
